Assays:
Type in all cases: in vivo
[1] = system: Alopecurus myosuroides (ALOMY); assay: Test 1 glasshouse assay, pre-emergence herbicidal activity; settings: 312 h, visual evaluation after 13 days, read-out: Percentage phytotoxicity ALOMY
Procedure, shortened: (§1)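 Pre-emergence spray 1 d post-sowing; acetone/water 50:50, 0.5% Tween 20 vehicle. Glasshouse 24/16° C, 14 h light, 65% RH. Visual % phytotoxicity at 13 d, 100% = total damage, 0% = none.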

[2] = system: Amaranthus retroflexus (AMARE); assay: as above; settings: 312 h, visual evaluation after 13 days, read-out: Percentage phytotoxicity AMARE
Procedure, shortened: as §1

[3] = system: Echinochloa crus-galli (ECHCG); assay: as above; settings: 312 h, visual evaluation after 13 days, read-out: Percentage phytotoxicity ECHCG
Procedure, shortened: as §1

[4] = system: Setaria faberi (SETFA); assay: as above; settings: 312 h, visual evaluation after 13 days, read-out: Percentage phytotoxicity SETFA
Procedure, shortened: as §1

[5] = system: Brachiaria plantaginea (BRAPL); assay: Test 2 glasshouse assay (IF50 formulation, X-77), pre-emergence herbicidal activity; settings: Urochloa plantaginea, 480 h, 20DAA, read-out: Percentage phytotoxicity BRAPL
Procedure: (§2) Seeds of a variety of monocotyledonous and dicotyledonous test plants are sown in standard soil in pots. The plants are cultivated for one day (for pre-emergence) or for about 12 days (for post-emergence) under controlled conditions in a glasshouse (warm climate species at 24/18° C., cool climate species at 20/16° C., both at day/night; 16 hours light; 65% humidity).
(§3) An “instant formulation”, known as the “IF50”, containing 50 g/liter (i.e. 5% w/v) of the “technical” (i.e. unformulated) active ingredient is prepared by dissolving the active ingredient in a mixture of organic solvents and emulsifier, details of which are provided in the Table below. This IF50 is then mixed with a small, variable amount of acetone to aid dissolution, before addition of a 0.2% v/v aqueous solution of the adjuvant X-77 (which is a mixture of alkyl aryl polyoxyethylene glycols and free fatty acids in isopropanol, CAS Registry number 11097-66-8), as the aqueous diluent, to form an aqueous spray solution which contains a predetermined concentration of the active ingredient (which varies depending on the application rate of the active ingredient to the plants) and 0.2% v/v of the adjuvant X-77. This aqueous spray solution is then sprayed onto the plants, after one day's cultivation (for pre-emergence), or after about 12 days' cultivation (range=10-13 days) (for post-emergence).
(§4) The test plants are then grown on, in a glasshouse (greenhouse) under controlled conditions (warm climate species at 24/18° C., cool climate species at 20/16° C., both at day/night; 16 hours light; 65% humidity) and are watered twice daily. 15 days after application of the test herbicide (15DAA) (for post-emergence), and 20 days after application of the test herbicide (20DAA) (for pre-emergence), the test plants are evaluated visually, and an assessed percentage phytotoxicity score is given for each herbicidal application on each plant species (with 100%=total damage to plant; 0%=no damage to plant).
(§5) Warm climate (“warm season”) grassy monocotyledonous weeds: Setaria faberi (SETFA), Panicum miliaceum (PANMI), Sorghum vulgare Pers. (SORVU) (or Sorghum bicolor (L) Moench ssp. Bicolor), Digitaria sanguinalis (DIGSA), Echinochloa crus-galli (ECHCG), and Brachiaria plantaginea (BRAPL).

[6] = system: Digitaria sanguinalis (DIGSA); assay: as above; settings: 480 h, 20DAA, read-out: Percentage phytotoxicity DIGSA
Procedure: as §2, §3, §4, §5

[7] = system: Echinochloa crus-galli (ECHCG); assay: as above; settings: 480 h, 20DAA, read-out: Percentage phytotoxicity ECHCG
Procedure: as §2, §3, §4, §5

[8] = system: Panicum miliaceum (PANMI); assay: as above; settings: 480 h, 20DAA, read-out: Percentage phytotoxicity PANMI
Procedure: as §2, §3, §4, §5

[9] = system: Setaria faberi (SETFA); assay: as above; settings: 480 h, 20DAA, read-out: Percentage phytotoxicity SETFA
Procedure: as §2, §3, §4, §5

[10] = system: Sorghum vulgare Pers. (SORVU); assay: as above; settings: Sorghum bicolor, 480 h, 20DAA, read-out: Percentage phytotoxicity SORVU
Procedure: as §2, §3, §4, §5

[11] = system: Brachiaria plantaginea (BRAPL); assay: Test 2 glasshouse assay (IF50 formulation, X-77), post-emergence herbicidal activity; settings: Urochloa plantaginea, 360 h, 15 DAA, visual score, read-out: Post-emergence herbicidal activity (percentage phytotoxicity) BRAPL; for pest or weed control at 30 g/ha: application rate 30 g/ha; for pest or weed control at 125 g/ha: application rate 125 g/ha
Procedure: as §2, §3, §4, §5

[12] = system: Echinochloa crus-galli (ECHCG); assay: as above; settings: 360 h, 15 DAA, visual score, read-out: Post-emergence herbicidal activity (percentage phytotoxicity) ECHCG; for pest or weed control at 30 g/ha: application rate 30 g/ha; for pest or weed control at 125 g/ha: application rate 125 g/ha
Procedure: as §2, §3, §4, §5

[13] = system: Panicum miliaceum (PANMI); assay: as above; settings: 360 h, 15 DAA, visual score, read-out: Post-emergence herbicidal activity (percentage phytotoxicity) PANMI; for pest or weed control at 30 g/ha: application rate 30 g/ha; for pest or weed control at 125 g/ha: application rate 125 g/ha
Procedure: as §2, §3, §4, §5

[14] = system: Sorghum vulgare Pers. (SORVU); assay: as above; settings: Sorghum bicolor, 360 h, 15 DAA, visual score, read-out: Post-emergence herbicidal activity (percentage phytotoxicity) SORVU; for pest or weed control at 30 g/ha: application rate 30 g/ha; for pest or weed control at 125 g/ha: application rate 125 g/ha
Procedure: as §2, §3, §4, §5

[15] = system: Abutilon theophrasti (ABUTH); assay: Test 1 glasshouse assay, pre-emergence herbicidal activity; settings: 312 h, visual evaluation after 13 days, read-out: Percentage phytotoxicity ABUTH
Procedure, shortened: as §1

[16] = system: Zea mays (ZEAMX, corn/maize); assay: as above; settings: 312 h, visual evaluation after 13 days, read-out: Percentage phytotoxicity ZEAMX
Procedure, shortened: as §1

Row | SMILES | pest or weed control at 250 g/ha [1] [%] | pest or weed control at 250 g/ha [2] [%] | pest or weed control at 250 g/ha [3] [%] | pest or weed control at 250 g/ha [4] [%] | pest or weed control at 125 g/ha [5] [%] | pest or weed control at 125 g/ha [6] [%] | pest or weed control at 30 g/ha [11] [%] | pest or weed control at 125 g/ha [11] [%] | pest or weed control at 30 g/ha [12] [%] | pest or weed control at 125 g/ha [12] [%] | pest or weed control at 30 g/ha [13] [%] | pest or weed control at 125 g/ha [13] [%] | pest or weed control at 30 g/ha [14] [%] | pest or weed control at 125 g/ha [14] [%] | pest or weed control at 250 g/ha [5] [%] | pest or weed control at 250 g/ha [6] [%] | pest or weed control at 250 g/ha [7] [%] | pest or weed control at 250 g/ha [8] [%] | pest or weed control at 250 g/ha [9] [%] | pest or weed control at 250 g/ha [10] [%] | further results
1 | C#CCC1CC(=O)C(c2c(C)cc(-c3ccc(F)cc3)cc2C)C1=O (centres unmarked) [Compound A1, 2-[4-(4-fluorophenyl)-2,6-dimethyl-phenyl]-4-prop-2-ynylcyclopentane-1,3-dione] | 100 | 80 | 100 | 90 | 90 | 100 | 100 | 100 | 100 | 100 | 80 | 100 | 90 | 100 |  |  |  |  |  |  | pest or weed control at 125 g/ha [7]: 90%; pest or weed control at 125 g/ha [8]: 100%; pest or weed control at 125 g/ha [9]: 100%; pest or weed control at 125 g/ha [10]: 90%
2 | C#CCC1CC(OC(C)=O)=C(c2c(C)cc(-c3ccc(F)cc3)cc2C)C1=O (centres unmarked) [Compound A45] | 100 | 90 | 100 | 60 | 90 | 90 | 90 | 100 | 100 | 100 | 100 | 100 | 70 | 100 |  |  |  |  |  |  | pest or weed control at 125 g/ha [7]: 80%; pest or weed control at 125 g/ha [8]: 100%; pest or weed control at 125 g/ha [9]: 90%; pest or weed control at 125 g/ha [10]: 80%
3 | C#CCC1CC(=O)C(c2c(CC)cc(C)cc2CC)C1=O (centres unmarked) [Compound A25, 2-(2,6-diethyl-4-methyl-phenyl)-4-(prop-2-ynyl)-cyclopentane-1,3-dione] | 100 |  | 100 |  |  |  | 100 | 100 | 100 | 100 | 100 | 100 | 100 | 100 | 100 | 100 | 100 | 90 | 80 | 90 | 
4 | C#CCC1CC(=O)C(c2c(F)cc(-c3ccc(Cl)cc3)cc2OC)C1=O (centres unmarked) [Compound A14] | 100 | 90 | 100 | 100 |  |  |  | 30 |  | 100 |  | 60 |  | 100 | 100 | 100 | 80 | 100 | 100 | 90 | pest or weed control at 250 g/ha [15]: 20%; pest or weed control at 250 g/ha [16]: 100%
5 | C#CCC1CC(=O)C(c2c(F)cc(-c3ccc(F)c(F)c3)cc2OC)C1=O (centres unmarked) [Compound A22] | 80 | 30 | 100 | 90 |  |  | 90 | 100 | 70 | 100 | 60 | 100 | 70 | 100 | 90 | 90 | 70 | 80 | 90 | 70 | pest or weed control at 250 g/ha [15]: 0%; pest or weed control at 250 g/ha [16]: 100%
6 | C#CCC1C(=O)C(c2c(C)cc(C)cc2C)C(=O)C1CC#C (centres unmarked) [Compound A42] | 100 |  | 80 |  |  |  |  | 100 |  | 100 |  | 100 |  | 80 |  |  |  |  |  |  | pest or weed control at 500 g/ha ([5]; 500 g/ha): 100%; pest or weed control at 500 g/ha ([6]; 500 g/ha): 70%; pest or weed control at 500 g/ha ([7]; 500 g/ha): 100%; pest or weed control at 500 g/ha ([8]; 500 g/ha): 100%; pest or weed control at 500 g/ha ([9]; 500 g/ha): 80%; pest or weed control at 500 g/ha ([10]; 500 g/ha): 80%; pest or weed control at 500 g/ha ([11]; application rate 500 g/ha): 100%; pest or weed control at 500 g/ha ([12]; application rate 500 g/ha): 100%; pest or weed control at 500 g/ha ([13]; application rate 500 g/ha): 100%; pest or weed control at 500 g/ha ([14]; application rate 500 g/ha): 100%

Source: US10375956B2, “Herbicidally active 2-(substituted-phenyl)-cyclopentane-1,3-dione compounds and derivatives thereof” (Syngenta Limited, priority 2013, dated 2019)
